In the experiment the test system is T cell lines from grass-allergic patients primed in vitro with affinity purified Lol p V. Nature of the experiment: T cell proliferation (tritiated thymidine uptake) of Lol p V-primed T cell lines restimulated with peptides or proteins. The class given is cell-based, human. The settings on record: for mean T cell stimulation index (S.I.): mean of positive responses (S.I. at least 2), FIGS. 4 and 5. An excerpt:
As discussed in Example 2, human T cell stimulating activity can be tested by culturing T cells obtained from an individual sensitive to Lol p V allergen, (i.e., an individual who has an IgE mediated immune response to Lol p V allergen) with a peptide derived from the allergen and determining whether proliferation of T cells occurs in response to the peptide as measured, e.g., by cellular uptake of tritiated thymidine. Stimulation indices for responses by T cells to peptides can be calculated as the maximum CPM in response to a peptide divided by the control CPM. A stimulation index (S.I.) equal to or greater than two times the background level is considered "positive". Positive results are used to calculate the mean stimulation index for each peptide for the group of patients tested. In FIGS. 4 and 5 the mean T cell stimulation index is indicated above the bar. Preferred peptides of this invention comprise at least one T cell epitope and have a mean T cell stimulation index of greater than or equal to 2.0. A peptide having a mean T cell stimulation index of greater than or equal to 2.0 in a significant number of ryegrass pollen sensitive patients tested is considered useful as a therapeutic agent. Preferred peptides have a mean T cell stimulation index of at least 2.5, more preferably at least 3.0, more preferably at least 3.5, more preferably at least 4.0, more preferably at least 5.0 and most preferably at least about 6. For example, peptides of the invention having a mean T cell stimulation index of at least 5, as indicated by data shown in FIGS. 4 and 5, include peptides LPIX-4 (SEQ ID NO:6), LPIX-5 (SEQ ID NO:7), LPIX-8 (SEQ ID NO:10) LPIX-17 (SEQ ID NO:19) and LPIX-19 (SEQ ID NO:21).
In addition, preferred peptides have a positivity index (P.I.) of at least about 60, more preferably about 100, more preferably at least about 200 and most preferably at least about 300. The positivity index for a peptide is determined by multiplying the mean T cell stimulation index by the percent of individuals, in a population of individuals sensitive to ryegrass pollen (e.g., preferably a population of at least 15 individuals,more preferably a population of at least 30 individuals or more), who have a T cell stimulation index to such peptide of at least 2.0. Thus, the positivity index represents both the strength of a T cell response to a peptide (S.I.) and the frequency of a T cell response to a peptide in a population of individuals sensitive to ryegrass pollen. In FIG. 4, the bar represents the positivity index and the percent of individuals tested who have a T cell stimulation index of at least 2.0 to that peptide are indicated in parenthesis above each bar (the mean T cell stimulation index is also indicated above each bar). […] Lol p V peptides having a positivity index of at least about 100 and a mean T cell stimulation index of at least about 4 include: LPIX-4 (SEQ ID NO:6), LPIX-5 (SEQ ID NO:7), and LPIX-17 (SEQ ID NO:19).
In FIG. 5, the bar represents the cumulative rank of the peptide response in the group of patients tested as described in Example 2. To determine the cumulative rank, the 5 peptides with the highest S.I. in each individual were determined and assigned a numerical rank in descending order, with 5 representing the strongest response. The ranks for each peptide were then summed for the entire group of patients tested to determine the cumulative rank for the peptide. Above each bar is the mean S.I. for each peptide and the percent of positive responses (in parenthesis) with an S.I. of at least 2 to the peptide in the group of patients tested.
This amount of priming antigen was determined to be optimal for the activation of T cells from most grass-allergic patients. Viable cells were purified by LSM centrifugation and cultured in complete medium, supplemented with 5 units recombinant human IL-2/ml and 5 units recombinant human IL-4/ml for up to 3 weeks until the desired cell number were achieved. […]

Here are results for six substances from patent US5710126A, “T cell epitopes of ryegrass pollen allergen” (ImmuLogic Pharmaceutical Corporation, priority 1995, dated 1998).

In the case of “LPIX-4: synthetic overlapping peptide derived from Lol p V, sequence shown in FIG. 2 (EQKLLEDVNAGFKAAVAAAA)”, where the note is “19 patients, FIG. 4”, the “positivity index (P.I.; % of patients responding multiplied by mean S.I.)” value is recorded as “at least 100”.
In the case of “LPIX-5: synthetic overlapping peptide derived from Lol p V, sequence shown in FIG. 2 (GFKAAVAAAANAPPADKFKI)”, for the setting “group of 19 patients tested, FIG. 4”, the “percent of positive responses (patients with S.I. of at least 2.0)” value amounted to 26.3%.
As to “LPIX-8: synthetic overlapping peptide derived from Lol p V, sequence shown in FIG. 2 (GLLATSAAKAPGLIPKLDTA)”, the “mean T cell stimulation index (S.I.)” value (19 patients) is recorded as “at least 5”.
Take “LPIX-17: synthetic overlapping peptide derived from Lol p V, sequence shown in FIG. 2 (ATAANAAPTNDKFTVFESAF)”: the “positivity index (P.I.; % of patients responding multiplied by mean S.I.)” value (19 patients, FIG. 4) is given as “at least 100”.
Consider “LPIX-19: synthetic overlapping peptide derived from Lol p V, sequence shown in FIG. 2 (NKALNECTGGAYETYKFIPS)”, for which the “mean T cell stimulation index (S.I.)” value (19 patients) was “at least 5”.
As for “LPIX-20: synthetic overlapping peptide derived from Lol p V, sequence shown in FIG. 2 (AYETYKFIPSLEAAVKQAYA)”, under “19 patients, 5 highest S.I. per individual ranked and summed, FIG. 5”, the “ranked sum (cumulative rank of the peptide response)” value is given as “highest ranked sum”.
